One data set concerns PKD1 knockout mice. Kind of data set: PKD mouse experiment. The conditions noted are these: 2 mg/kg subcutaneous injection, seven days of administration. The class given is in vivo. The source says: Such compounds have antagonistic effects on arginine vasopressin receptors, and can inhibit the effect of cAMP in vivo, thereby inhibiting the occurrence and development of PKD. In this experiment, PKD1 knockout mice were used to evaluate the efficacy of these compounds.
1. Numbering the mice to perform gene identification: After 3 days of birth, the mice were marked by the method of cutting toes. The cut toes were placed in EP tubes marked in advance to boil, and then the genes were identified by agarose electrophoresis after PCR.
2. Preparation of corresponding medicaments: The corresponding weights of drugs were precisely weighed with an electronic balance and placed in new EP tubes. Then the corresponding amounts of HPMC were added with a pipette to prepare the medicaments of the desired concentration.
3. Administration to mice: The administrations of medicaments to mice was started on Day 6 or 5 after birth (the underweight mice were administered with medicaments on Day 6, and the rest of mice were administered with medicaments on Day 5), and the administration time was fixed (for example, 9:00 am). […]
5. Data processing: The total weight of the left and right kidneys, and the proportion of the kidneys, etc. were calculated.

The test system of another data set is MDCK cells. The experiment in a line: PKD vesicle experiment (forskolin-induced vesicles of MDCK cells in matrigel). The class given is cell-based. The conditions noted are these: 10 μM Forsklin, day 12. The procedure: The vesicles similar to those in PKD disease are formed by using MDCK cells under the action of AC enzyme agonist forskolin to simulate the occurrence and development of the disease, and the test compounds are respectively administered to observe their effects on the vesicles.
The MDCK cells were cultured at 37° C./5% CO2, with DMEM F12 medium (purchased from Combio technology company) supplemented with 10% fetal bovine serum and 1% double antibody.
During the re-cooling of matrigel, MDCK cells were digested and counted. […] The cells were incubated for 12 days, in which the medium was changed every 12 h, and photos were taken at days 4, 6, 8, 10, and 12. The photo area was selected to track the specific vesicles.
The diameters of vesicles were compared on day 12 to assess the effect of test compounds.

In another data set the target is human V2R (Homo sapiens, UniProt P30518). The conditions noted are these: for residence time: read-out: RT (residence time of the compound to be tested on cells); for koff: read-out: koff (dissociation constant between the compound to be tested and cells); for kon: read-out: kon (association constant between the compound to be tested and cells).
human V2R, sequence (P30518 whole entry): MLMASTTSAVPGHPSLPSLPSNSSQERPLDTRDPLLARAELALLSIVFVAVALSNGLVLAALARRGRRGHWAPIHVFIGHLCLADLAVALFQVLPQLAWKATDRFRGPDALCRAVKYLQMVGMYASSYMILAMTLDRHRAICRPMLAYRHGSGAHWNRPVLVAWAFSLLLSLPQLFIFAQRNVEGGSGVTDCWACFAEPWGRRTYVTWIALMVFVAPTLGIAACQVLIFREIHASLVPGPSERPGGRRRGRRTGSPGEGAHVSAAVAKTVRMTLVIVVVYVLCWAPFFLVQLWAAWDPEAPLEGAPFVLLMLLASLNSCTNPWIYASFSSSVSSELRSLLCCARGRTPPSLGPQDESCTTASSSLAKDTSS
The next data set relates to ADPKD patients. Conditions: cited from earlier work.

Take `Cc1ccccc1C(=O)Nc1ccc(C(=O)N2CCCC(NCCCN3CCOCC3)c3cc(Cl)ccc32)c(C)c1` (stereo not drawn) [Compound 1, N-(4-(7-chloro-5-((3-morpholinopropyl)amino)-2,3,4,5-tetrahydro-1H-benzo[b]azepine-1-carbonyl)-3-methylphenyl)-2-methylbenzamide]: in the data set with PKD1 knockout mice, the “Proportion of the kidneys %” value came to 11.85%. Further, the “The diameter of vesicles” value with MDCK cells was 172.0 μm.

As to `Cc1ccccc1C(=O)Nc1ccc(C(=O)N2CCCC(NCCCCN3CCOCC3)c3cc(Cl)ccc32)c(C)c1` (stereo not drawn) [Compound 2, N-(4-(7-chloro-5-((4-morpholinobutyl)amino)-2,3,4,5-tetrahydro-1H-benzo[b]azepine-1-carbonyl)-3-methylphenyl)-2-methylbenzamide], at human V2R, the residence time came to 12 ± 2 min, the koff was 0.00135 s⁻¹ and the kon was 160000 M⁻¹ s⁻¹.

For the molecule `Cc1ccccc1C(=O)Nc1ccc(C(=O)N2CCCC(NCCCCCN3CCOCC3)c3cc(Cl)ccc32)c(C)c1` (stereo not drawn) [Compound 3, N-(4-(7-chloro-5-((5-morpholinopentyl)amino)-2,3,4,5-tetrahydro-1H-benzo[b]azepine-1-carbonyl)-3-methylphenyl)-2-methylbenzamide], at human V2R, the residence time was found to be 14 ± 2 min, the koff was 0.00118 s⁻¹ and the kon was 105000 M⁻¹ s⁻¹.

As for `Cc1ccccc1C(=O)Nc1ccc(C(=O)N2CCCC(NCCN3CCOCC3)c3cc(Cl)ccc32)c(C)c1` (stereo not drawn) [Compound 4, N-(4-(7-chloro-5-((2-morpholinoethyl)amino)-2,3,4,5-tetrahydro-1H-benzo[b]azepine-1-carbonyl)-3-methylphenyl)-2-methylbenzamide], on human V2R, the residence time was 21 ± 2 min, the koff was 0.000783 s⁻¹ and the kon is 333000 M⁻¹ s⁻¹. In addition, on human V2R (text summary of Table 7), the “affinity to V2R compared with Tolvaptan” value is recorded as “comparable to the affinity of Tolvaptan” and the “residence time with receptor compared with Tolvaptan” value is given as “longer residence time with receptor than Tolvaptan”.

For the molecule `Cc1ccccc1C(=O)Nc1ccc(C(=O)N2CCCC(NCCCc3ccncc3)c3cc(Cl)ccc32)c(C)c1` (stereo not drawn) [Compound 5, N-(4-(7-chloro-5-((3-(pyridin-4-yl)propyl)amino)-2,3,4,5-tetrahydro-1H-benzo[b]azepine-1-carbonyl)-3-methylphenyl)-2-methylbenzamide], at human V2R, the residence time was 13 ± 1 min, the koff is 0.00125 s⁻¹ and the kon is 165000 M⁻¹ s⁻¹. Also, the “affinity to V2R compared with Tolvaptan” value at human V2R (text summary of Table 7) is reported as “comparable to the affinity of Tolvaptan”.

In the case of `Cc1ccccc1C(=O)Nc1ccc(C(=O)N2CCCC(NCCC(=O)N3CCOCC3)c3cc(Cl)ccc32)c(C)c1` (stereo not drawn) [Compound 13, N-(4-(7-chloro-5-((3-morpholino-3-oxopropyl)amino)-2,3,4,5-tetrahydro-1H-benzo[b]azepine-1-carbonyl)-3-methylphenyl)-2-methylbenzamide], on human V2R, the residence time came out at 9 ± 1 min, the koff was 0.00183 s⁻¹ and the kon is 683000 M⁻¹ s⁻¹. For the same molecule, the “affinity to V2R compared with Tolvaptan” value on human V2R (text summary of Table 7) is “comparable to the affinity of Tolvaptan”.

For the molecule `Cc1ccccc1C(=O)Nc1ccc(C(=O)N2CCCC(NCCCN3CCN(C)CC3)c3cc(Cl)ccc32)c(C)c1` (stereo not drawn) [Compound 17, N-(4-(7-chloro-5-((3-(4-methylpiperazin-1-yl)propyl)amino)-2,3,4,5-tetrahydro-1H-benzo[b]azepine-1-carbonyl)-3-methylphenyl)-2-methylbenzamide], at human V2R, the residence time was 7 ± 1 min, the koff was 0.00233 s⁻¹ and the kon is 350000 M⁻¹ s⁻¹.

For `Cc1ccccc1C(=O)Nc1ccc(C(=O)N2CCCC(NCCOc3ccccc3)c3cc(Cl)ccc32)c(C)c1` (stereo not drawn) [Compound 21, N-(4-(7-chloro-5-((2-phenoxyethyl)amino)-2,3,4,5-tetrahydro-1H-benzo[b]azepine-1-carbonyl)-3-methylphenyl)-2-methylbenzamide], on human V2R, the affinity corresponds to a Ki of 77 ± 26 nM, the residence time turned out to be 17 ± 2 min, the koff is 0.001 s⁻¹ and the kon is 18300 M⁻¹ s⁻¹.

As for `Cc1ccccc1C(=O)Nc1ccc(C(=O)N2CCCC(NCCCCCOc3ccccc3)c3cc(Cl)ccc32)c(C)c1` (stereo not drawn) [Compound 24, N-(4-(7-chloro-5-((5-phenoxypentyl)amino)-2,3,4,5-tetrahydro-1H-benzo[b]azepine-1-carbonyl)-3-methylphenyl)-2-methylbenzamide], on human V2R, the Ki turned out to be 31 ± 7 nM, the residence time stood at 7 ± 1 min, the koff was 0.0025 s⁻¹ and the kon is 183000 M⁻¹ s⁻¹.

Turning to `Cc1ccccc1C(=O)Nc1ccc(C(=O)N2CCCC(O)c3cc(Cl)ccc32)c(C)c1` (stereo not drawn) [Tolvaptan, tolvaptan, reference compound], the “Proportion of the kidneys %” value with PKD1 knockout mice was determined as 15.80%. In addition, the serum hepatic transaminases entry with ADPKD patients (clinical trials, some patients) is “increased to more than three times the normal level”. Further, the “excretion rate of sodium and urea” value with ADPKD patients (prospective study, 30 ADPKD patients, after administration) is “increased”. For the same molecule, the “The diameter of vesicles” value in the data set with MDCK cells amounted to 183.7 μm.

Usually koff stands for a measure of how fast the partners let go of each other. The term kon denotes the rate constant with which the complex forms. One may read the Ki as a dissociation constant, usually derived from enzyme kinetics or from competition with a known ligand. Low readings indicate higher affinity, high ones lower affinity.

Values taken from US20240076279A1, “NOVEL BENZOAZEPINE COMPOUND, AND COMPOSITION AND USE THEREOF” (XUZHOU MEDICAL UNIVERSITY, priority 2021, published 2024).
